In ChEMBL document CHEMBL5724558, “Image-based profiling of drug vulnerabilities in CRC organoids” (2024):
“And” between values parts separate entries of the source, which are not always exact repeats. Identical values can stand only once. Square brackets hold non-standard residues; d marks the D form. Peptide text beside a SMILES is read from it. Arg(Me) = CNC(=N)NCCC[C@H](N)C(=O)O; d4Pal = N[C@H](Cc1ccncc1)C(=O)O; azaGly = NNC(=O)O

How the values were obtained:
Assay type in all cases: functional, Homo sapiens
Parameters in all cases: dose or concentration left out as unconfirmed
Colon cancer organoid [1] = experiment: Image-based profiling of donated chemical probes and chemogenomic kinase set in O09 CRC organoid. Image analysis is performed on the sum area metric, and the data were normalized to the DMSO control. After imaging the organoid viability is measured using the OneGloEX Luciferase Assay System. The normalized viability data and sum area are reported.
Colon cancer organoid [2] = experiment: Image-based profiling of donated chemical probes and chemogenomic kinase set in O21 CRC organoid. Image analysis is performed on the sum area metric, and the data were normalized to the DMSO control. After imaging the organoid viability is measured using the OneGloEX Luciferase Assay System. The normalized viability data and sum area are reported.
Colon cancer organoid [3] = experiment: Image-based profiling of donated chemical probes and chemogenomic kinase set in O06 CRC organoid. Image analysis is performed on the sum area metric, and the data were normalized to the DMSO control. After imaging the organoid viability is measured using the OneGloEX Luciferase Assay System. The normalized viability data and sum area are reported.

Structure (SMILES)	Cell Viability (Colon cancer organoid [1]; Replication number 1)	Cell Viability (Colon cancer organoid [1]; Replication number 2)	Cell Viability (Colon cancer organoid [2]; Replication number 1)	Cell Viability (Colon cancer organoid [2]; Replication number 2)	Cell Viability (Colon cancer organoid [3]; Replication number 1)	Cell Viability (Colon cancer organoid [3]; Replication number 2)
CNC(=N)NCCC[C@H](NC(=O)[C@H](CC(C)C)NC(=O)NNC(=O)[C@H](Cc1ccccc1)NC(=O)[C@H](CO)NC(=O)[C@H](CC(N)=O)NC(=O)[C@@H](Cc1ccncc1)NC(=O)[C@H](N)Cc1ccc(O)cc1)C(=O)N[C@@H](Cc1ccccc1)C(N)=O [KISS1-305] (H-[dY][d4Pal]NSF[azaGly]L[Arg(Me)]F-NH2)	111.929% and 98.6727%	102.809% and 106.608%	121.353% and 98.3829%	105.015% and 111.735%	103.915% and 128.337%	108.799% and 104.471%
Clc1cc2c(NC3CCCC3)nnc(-c3ccncc3)c2cc1Cl	139.675% and 109.428%	148.163% and 121.159%	113.128% and 118.158%	77.3442% and 110.621%	62.2011% and 99.302%	123.043% and 92.9634%
CNC(=O)Nc1ccc(-c2nc(N3CC4CCC(C3)O4)c3cnn(C4CCC5(CC4)OCCO5)c3n2)cc1	16.963% and 8.004%	13.8845% and 13.3086%	32.2778% and 51.8467%	33.537% and 47.4991%	5.405% and 12.6193%	4.979% and 10.7558%
CCOc1ccn(-c2ccc(F)cc2)c(=O)c1C(=O)Nc1ccc(Oc2ccnc(N)c2Cl)c(F)c1 [BMS-777607]	102.993% and 102.228%	97.5395% and 82.0651%	134.256% and 110.941%	106.617% and 115.725%	96.7201% and 108.61%	116.766% and 115.578%
COc1cc2c(cc1OCCCN1CCCC1)N=C(N)C21CCC1	70.9946% and 111.515%	77.9538% and 123.155%	92.2277% and 112.28%	68.723% and 97.1957%	110.816% and 131.678%	106.27% and 117.339%
Cc1c(NC(=O)c2ccc(C(C)(C)C)cc2)cccc1-c1cn(C)c(=O)c(Nc2ccc(C(=O)N3CCOCC3)cc2)n1	87.7094% and 99.5999%	109.316% and 107.058%	86.5232% and 101.491%	97.7388% and 99.4222%	119.85% and 118.543%	84.412% and 97.7895%
CN(C)C(=O)c1cc2cnc(Nc3ccc(N4CCNCC4)cn3)nc2n1C1CCCC1 [RIBOCICLIB]	49.4558% and 44.8808%	42.3849% and 44.8119%	76.3687% and 83.6237%	91.6892%	18.4025% and 48.7411%	14.7054% and 40.1028%
COc1cc(OC)cc(-c2noc(N3CCN(C)C4(CCN(c5ccccc5)CC4)C3)n2)c1	101.833% and 98.7635%	122.499% and 95.7871%	113.13% and 104.05%	103.365% and 96.1217%	202.541% and 143.275%	168.695% and 116.861%
COc1cc2c(NC3CCN(C(C)C)CC3)nc(N3CCC(F)(F)CC3)nc2cc1OCCCN1CCCC1	87.3897% and 128.439%	117.725% and 126.861%	89.3609% and 142.848%	55.1916% and 97.1957%	71.9409% and 120.564%	77.7589% and 98.4599%
CN1CCN(C(=O)C(C)(C)c2ccc(C(=O)Nc3cn4cc(-c5cc(C(C)(C)C)cc(C(C)(C)C)c5)ccc4n3)cc2)CC1 [T3-CLK-N]	89.0201% and 93.1776%	119.23% and 117.123%	88.9475% and 97.2186%	93.8303% and 107.653%	75.6351% and 77.2834%	96.9336% and 98.0752%
